# What was measured:
# [1] = Urinary and fecal excretion in ICR mice; type: in vivo
# Method: (§1) Urinary excretion levels were also examined (Supplementary Table S1). Comparing the D-isomer and L isomer of ^211At-AAMT-O-Me from ICR mice, the D-isomer; 24.84 ± 13.03% ID, L-isomer; 33.69 ± 1.26% ID at 1 h after injection. D-isomer; 71.36 ± 4.67% ID, L-isomer; 23.99 ± 2.40% ID at 3 h after injection. From PANC-1 tumor bearing mice, D-isomer; 35.24 ± 8.70% ID, L-isomer; 20.40 ± 0.76% ID at 1 h after injection. D-isomer; 47.38 ± 3.19% ID, L-isomer; 3.23 ± 0.67% ID at 3 h after injection. In tumor-bearing models, the amount of excretion was smaller than that in normal mice. We have already reported that, in the presence of target cancer tissue for administered drugs, retention in the cancer tissue results in reduced excretion compared with normal animals. […] The same was also observed for feces, but very little was excreted in the feces. The results were as follows: from ICR mice, D-isomer; 0.06 ± 0.03% ID, L-isomer; 0.004 ± 0.003% ID at 1 h after injection. D-isomer; 0.02 ± 0.01% ID, L-isomer; 0.02 ± 0.01% ID at 3 h after injection. From PANC-1 tumor bearing mice, D-isomer; 0.25 ± 0.12% ID, L-isomer; 0.002 ± 0.001% ID at 1 h after injection. D-isomer; 0.75 ± 0.46% ID; L-isomer; 0.07 ± 0.03% ID at 3 h after injection.
# ICR mice (male, 5 weeks old) were purchased from Japan SLC (Shizuoka, Japan) and acclimated for one week prior to use. The doses in the distribution experiments were as follows: ^211At-AAMT-O-Me-L (0.407 ± 0.005 MBq/mouse, 31.64 ± 0.76 g, n = 6), ^211At-AAMT-O-Me-D (0.351 ± 0.004 MBq/mouse, 31.44 ± 0.94 g, n = 6), ^211At-AAMT-O-Et-L (0.685 ± 0.010 MBq/mouse, 24.14 ± 3.31 g, n = 6), ^211At-AAMT-O-Pr-L (1.09 ± 0.06 MBq/mouse, 26.33 ± 0.39 g, n = 6)
# [2] = Urinary and fecal excretion in PANC-1 tumor bearing mice; type: in vivo
# Method: as §1
# (§2) BALB/c nu/nu mice (male, 5 weeks old) were purchased from Japan SLC (Shizuoka, Japan) and subcutaneously transplanted at a density of 1 × 10^7 cells/mouse. PANC-1 cells that reached the logarithmic growth phase were transplanted subcutaneously by mixing a 1 × 10^8 cells/mL cell suspension with an equivalent volume of Matrigel (Corning, Corning, NY, USA) to obtain 1 × 10^7 cells per mouse. Experiments were performed after the size of the transplanted tumor had exceeded 50 mm^3. The doses in the distribution experiments were as follows: ^211At-AAMT-OH-L (0.501 ± 0.011 MBq/mouse, 19.91 ± 0.59 g, n = 3) and ^211At-AAMT-O-Me-L (0.384 ± 0.003 MBq/mouse, 19.18 ± 0.38 g, n = 6 for Table 3), ^211At-AAMT-O-Me-L (158.10 ± 2.94 kBq/mouse, 19.27 ± 0.64 g, n = 6) and ^211At-AAMT-O-Me-D (135.08 ± 2.35 kBq/mouse, 18.64 ± 0.97 g, n = 6), ^211At-AAMT-O-Et-L (0.682 ± 0.011 MBq/mouse, 20.25 ± 1.41 g, n = 6), ^211At-AAMT-O-Pr-L (0.927 ± 0.020 MBq/mouse, 21.74 ± 0.37 g, n = 6).
# PANC-1 tumor model = test: Tissue distribution in nude mice (PANC-1 tumor model); type: in vivo, BALB/c nu/nu mice; settings: nude mice (PANC-1 tumor model)
# Method: as §2
structure (smiles),measurement,setting,value
COc1ccc(C[C@@](C)(N)C(=O)O)cc1[211At] [^211At-AAMT-O-Me-D],Excretion in feces,[1]; 1 h after injection,0.06 ± 0.03 % ID
same,Urinary excretion,[1]; 1 h after injection,24.84 ± 13.03 % ID
same,Excretion in feces,[1]; 3 h after injection,0.02 ± 0.01 % ID
same,Urinary excretion,[1]; 3 h after injection,71.36 ± 4.67 % ID
same,Urinary content,[1]; after 3 h,exceeded 70%
same,Excretion in feces,[2]; 1 h after injection,0.25 ± 0.12 % ID
same,Urinary excretion,[2]; 1 h after injection,35.24 ± 8.70 % ID
same,Excretion in feces,[2]; 3 h after injection,0.75 ± 0.46 % ID
same,Urinary excretion,[2]; 3 h after injection,47.38 ± 3.19 % ID
same,"Tissue distribution, Bladder",PANC-1 tumor model; 1 h after injection,1.76 ± 1.64 %ID/g
same,"Tissue distribution, Blood",PANC-1 tumor model; 1 h after injection,3.52 ± 1.89 %ID/g
same,"Tissue distribution, Bone",PANC-1 tumor model; 1 h after injection,0.30 ± 0.12 %ID/g
same,"Tissue distribution, Brain",PANC-1 tumor model; 1 h after injection,0.15 ± 0.01 %ID/g
same,"Tissue distribution, Cecum",PANC-1 tumor model; 1 h after injection,2.35 ± 1.73 %ID/g
same,"Tissue distribution, Colon",PANC-1 tumor model; 1 h after injection,0.85 ± 0.49 %ID/g
same,"Tissue distribution, Heart",PANC-1 tumor model; 1 h after injection,0.53 ± 0.08 %ID/g
same,"Tissue distribution, Kidney",PANC-1 tumor model; 1 h after injection,1.40 ± 0.56 %ID/g
same,"Tissue distribution, Liver",PANC-1 tumor model; 1 h after injection,3.09 ± 0.39 %ID/g
same,"Tissue distribution, Lung",PANC-1 tumor model; 1 h after injection,2.24 ± 0.89 %ID/g
same,"Tissue distribution, Pancreas",PANC-1 tumor model; 1 h after injection,0.61 ± 0.44 %ID/g
same,"Tissue distribution, Salivary glands",PANC-1 tumor model; 1 h after injection,0.30 ± 0.10 %ID/g
same,"Tissue distribution, Small intestine",PANC-1 tumor model; 1 h after injection,2.05 ± 0.81 %ID/g
same,"Tissue distribution, Spleen",PANC-1 tumor model; 1 h after injection,1.70 ± 0.74 %ID/g
same,"Tissue distribution, Stomach",PANC-1 tumor model; 1 h after injection,1.43 ± 0.94 %ID/g
same,"Tissue distribution, Testis",PANC-1 tumor model; 1 h after injection,1.05 ± 0.77 %ID/g
same,"Tissue distribution, Thyroid",PANC-1 tumor model; 1 h after injection,0.14 ± 0.04 %ID/g
same,"Tissue distribution, Tumor",PANC-1 tumor model; 1 h after injection,3.25 ± 1.39 %ID/g
same,"Tissue distribution, Bladder",PANC-1 tumor model; 3 h after injection,1.04 ± 0.97 %ID/g
same,"Tissue distribution, Blood",PANC-1 tumor model; 3 h after injection,1.92 ± 1.16 %ID/g
same,"Tissue distribution, Bone",PANC-1 tumor model; 3 h after injection,0.26 ± 0.12 %ID/g
same,"Tissue distribution, Brain",PANC-1 tumor model; 3 h after injection,0.10 ± 0.03 %ID/g
same,"Tissue distribution, Cecum",PANC-1 tumor model; 3 h after injection,1.32 ± 0.96 %ID/g
same,"Tissue distribution, Colon",PANC-1 tumor model; 3 h after injection,0.40 ± 0.25 %ID/g
same,"Tissue distribution, Heart",PANC-1 tumor model; 3 h after injection,0.37 ± 0.03 %ID/g
same,"Tissue distribution, Kidney",PANC-1 tumor model; 3 h after injection,1.54 ± 0.86 %ID/g
same,"Tissue distribution, Liver",PANC-1 tumor model; 3 h after injection,2.60 ± 0.07 %ID/g
same,"Tissue distribution, Lung",PANC-1 tumor model; 3 h after injection,1.27 ± 0.40 %ID/g
same,"Tissue distribution, Pancreas",PANC-1 tumor model; 3 h after injection,0.48 ± 0.35 %ID/g
same,"Tissue distribution, Salivary glands",PANC-1 tumor model; 3 h after injection,0.33 ± 0.13 %ID/g
same,"Tissue distribution, Small intestine",PANC-1 tumor model; 3 h after injection,1.48 ± 0.37 %ID/g
same,"Tissue distribution, Spleen",PANC-1 tumor model; 3 h after injection,1.81 ± 1.19 %ID/g
same,"Tissue distribution, Stomach",PANC-1 tumor model; 3 h after injection,1.29 ± 0.77 %ID/g
same,"Tissue distribution, Testis",PANC-1 tumor model; 3 h after injection,1.64 ± 1.26 %ID/g
same,"Tissue distribution, Thyroid",PANC-1 tumor model; 3 h after injection,0.14 ± 0.06 %ID/g
same,"Tissue distribution, Tumor",PANC-1 tumor model; 3 h after injection,3.84 ± 2.10 %ID/g

# From paper PMC11594329, “Development of LAT1-Selective Nuclear Medicine Therapeutics Using Astatine-211” (International Journal of Molecular Sciences, 2024)
